Experimental data reported in patent US20240173389A1, “Compositions and Methods For Reducing Immune Intolerance” (LAPIX THERAPEUTICS, INC., priority 2021, published 2024).

What was measured:
[1] = test system: FoxP3+/CD4+ T-cells; experiment: Splenocytes cultured 3 days with anti-CD3/anti-CD28 with or without OPLT, percent FoxP3+/CD4+ T-cells (Example 6); format: cell-based, C57BL/6 mice; settings: 72-hour incubation
Experimental: (§1) OPLT was dissolved in sterile PBS at 100 μM, and pH was adjusted to approximately 7.5. Splenocytes from naïve C57BL/6 mice were stained with CFSE, prepared, cultured, and dosed. Cells were seeded at 2×10^5 cells/well.
To evaluate the effects of OPLT on FoxP3+/CD4+ T-cells, splenocytes were cultured for 3 days in presence of anti-CD3/anti-CD28 with and without 1.85 μg/ml (10 μM) OPLT. Cells were harvested at the end of a 72-hour incubation period and percent FoxP3+/CD4+ T-cells was determined by flow cytometry.

[2] = test system: B57BL6 Mice; experiment: Anti-FVIII titer analysis in mice given FVIII co-mixed with compound SC QW 4 weeks, then FVIII re-challenge (Example 1); format: in vivo
Experimental: (§2) OPLT was dissolved in sterile PBS, and pH was adjusted to approximately 7.5. OPLS, a comparator compound, was dissolved in sterile PBS, and pH was adjusted to approximately 7.5. FVIII in PBS was used as a control. For treatment, FVIII was co-mixed with OPLT, OPLS or diluted in PBS before administration, as per group assignment for each animal. For re-challenge, FVIII was administered alone SC to all animals regardless of group assignment. […] For a head-to-head comparison, 5 mg/injection was selected for OPLT. FVIII was dosed at 1 μg/injection.
The study was conducted in two parts: a treatment phase and a re-challenge phase. The objective of the treatment phase was to test the ability of OPLT to reduce the immunogenicity of FVIII as an antigen compared to animals administered FVIII or FVIII+OPLS. Animals were injected with FVIII, FVIII+OPLT, or FVIII+OPLS SC QW for 4 weeks. Blood samples were collected for anti-FVIII titer analysis after a one-week washout period from the last dose. The objective of the re-challenge phase of the study was to evaluate the duration of tolerance. Animals that have been successfully tolerized toward FVIII will not mount a robust immune response towards FVIII upon subsequent exposure to FVIII. After the washout period, animals were injected with (1 μg) FVIII SC QW for 2 weeks. Blood samples were collected one week after each FVIII injection for anti-FVIII titer analysis.

[3] = test system: TLR2; experiment: TNF-α production by splenocytes in response to TLR2 ligand PGN; format: cell-based, C57BL/6 mice; settings: for TNF-α mean: 48 hours, OPLT 1.85 μg/ml, dexamethasone 100 μg/ml, rapamycin 625 μg/ml
Experimental: as §1
(§3) To evaluate the effects of OPLT on cytokine production by splenocytes in response to different TLR ligands, splenocytes were incubated with one of the following TLR ligands in triplicate: PGN, LPS, ODN CPG, dsRNA, or ssRNA, as per group assignment. Cells were then treated as follows: • Control: No treatment; • OPLT: Cells were dosed with 1.85 μg/ml; • Dexamethasone: Cells were dosed with 100 μg/ml; • Rapamycin: Cells were dosed with 625 μg/ml. Cells were incubated for 48 hours before collecting the supernatant for TNF-α analysis.
(§4) The supernatant was collected for TNF-α analysis by ELISA.

[4] = test system: TLR9; experiment: TNF-α production by splenocytes in response to TLR9 ligand ODN CpG; format: cell-based, C57BL/6 mice; settings: for TNF-α mean: 48 hours, OPLT 1.85 μg/ml, dexamethasone 100 μg/ml, rapamycin 625 μg/ml
Experimental: as §1, §3, §4

[5] = test system: FoxP3+/CD4+ T-cell; experiment: Ex vivo flow cytometry of splenocytes for FoxP3+/CD4+ T-cells after FVIII treatment period (Example 1); format: in vivo, mice
Experimental: as §2
One week after the last dose in the treatment period, one animal from each group was selected at random for ex vivo analysis of the T-cell population. Spleens were collected and a single-cell suspension was prepared for cellular phenotyping by flow cytometry. Cells were stained and gated for CD4+ T-cells. FoxP3 expression level was evaluated for each animal.

[6] = test system: TLR4; experiment: TNF-α production by splenocytes in response to TLR4 ligand LPS; format: cell-based, C57BL/6 mice; settings: for TNF-α mean: 48 hours, OPLT 1.85 μg/ml, dexamethasone 100 μg/ml, rapamycin 625 μg/ml
Experimental: as §1, §3, §4

[7] = test system: TLR3; experiment: TNF-α production by splenocytes in response to TLR3 ligand poly(I:C); format: cell-based, C57BL/6 mice; settings: for TNF-α mean: 48 hours, OPLT 1.85 μg/ml, dexamethasone 100 μg/ml, rapamycin 625 μg/ml
Experimental: as §1, §3, §4

[8] = weeks 1 and 2 of re-challenge with FVIII alone SC QW

## N[C@@H](Cc1ccc(OP(=O)(O)O)cc1)C(=O)O [OPLT, O-phospho-L-tyrosine]
[1]; 10 μM (1.85 μg/ml) OPLT, anti-CD3/anti-CD28
  increase in FoxP3+/CD4+ T-cells versus untreated cells: 118%
[1]; 10 μM OPLT, untreated 12.7%
  percent FoxP3+/CD4+ T-cells: 27.7%
[2]; OPLT versus OPLS, 5 mg/injection each
  inducing sustained immunotolerization toward FVIII: more effective than OPLS
[2]; end of treatment after one-week washout
  anti-FVIII titers versus FVIII control group: statistically lower than the FVIII control group
[2]; end of treatment after one-week washout, 5 mg/injection + FVIII SC QW 4 weeks, FVIII control 8/8
  animals that developed anti-FVIII antibodies: 3/8
[2]; [8]
  average anti-FVIII titer in re-challenge period: lower titer than animals in the OPLS+FVIII and the FVIII control group
  immune response to FVIII re-challenge: did not develop a robust immune response
[3]; PGN 0 ng/ml
  TNF-α mean: 0 pg/mL
[3]; PGN 1 ng/ml, CTL 730
  TNF-α mean: 445 pg/mL
[3]; PGN 10 ng/ml, CTL 725
  TNF-α mean: 613 pg/mL
[3]; PGN 100 ng/ml, CTL 834
  TNF-α mean: 827 pg/mL
[3]; PGN 1, 10, 100 ng/ml, compared to control
  effect on splenocytes' TNF-α response to the TLR2 ligand PGN (in words): statistically significant reduction in TNF-α in the low PGN dose group (1 ng/ml), but not the mid or high PGN dose group
[4]; ODN CpG 0 ng/ml
  TNF-α mean: 0 pg/mL
[4]; ODN CpG 1 ng/ml, CTL 0
  TNF-α mean: 0 pg/mL
[4]; ODN CpG 10 ng/ml, CTL 338
  TNF-α mean: 0 pg/mL
[4]; ODN CpG 100 ng/ml, CTL 1220
  TNF-α mean: 1178 pg/mL
[4]; high dose of ODN CpG
  effect on splenocytes' TNF-α response to the TLR9 ligand ODN CpG (in words): did not
[4]; mid-dose of ODN CpG, statistically significant
  effect on splenocytes' TNF-α response to the TLR9 ligand ODN CpG (in words): reduced splenocytes' response to mid-dose of the TLR9 ligand ODN CpG
[5]; 5 mg/injection co-mixed with FVIII 1 μg SC QW 4 weeks, splenocytes of one animal per group one week after last dose
  increase in FoxP3+/CD4+ compared to the FVIII alone group: 188%
[5]; 5 mg/injection co-mixed with FVIII SC QW 4 weeks
  increase in FoxP3+/CD4+ compared to OPLS+FVIII treatment: 73%
[5]; 5 mg/injection co-mixed with FVIII SC QW 4 weeks, one animal per group, FVIII alone 2.94
  FoxP3+/CD4+ T-cell (flow cytometry of splenocytes): 8.47
[6]; LPS 0 ng/ml
  TNF-α mean: 0 pg/mL
[6]; LPS 1 ng/ml, CTL 143
  TNF-α mean: 116 pg/mL
[6]; LPS 10 ng/ml, CTL 840
  TNF-α mean: 676 pg/mL
[6]; LPS 100 ng/ml, CTL 1091
  TNF-α mean: 838 pg/mL
[6]; compared to control at all doses, 10 μM OPLT
  effect on splenocytes' TNF-α response to the TLR4 ligand LPS (in words): did not abrogate splenocytes' response to LPS
[7]; PolyI:C 0 ng/ml
  TNF-α mean: 0 pg/mL
[7]; PolyI:C 1 ng/ml, CTL 0
  TNF-α mean: 0 pg/mL
[7]; PolyI:C 10 ng/ml, CTL 109
  TNF-α mean: 0 pg/mL
[7]; PolyI:C 100 ng/ml, CTL 162
  TNF-α mean: 0 pg/mL
[7]; compared to control at all doses
  effect on splenocytes' TNF-α response to the TLR3 ligand poly(I:C) (in words): abrogated splenocytes' response to the TLR3 ligand poly(I:C)
